Columns and labels:
[1] = target: T1, Angiotensin II receptor (Rattus norvegicus) (UniProt P29089+P25095+P35351); assay: In vivo inhibition of pressor response induced by Angiotensin II (AII) following intravenous administration to pithed rats; format: functional, organism-based
[2] = target: T1, Angiotensin II receptor (Rattus norvegicus); assay: In vivo inhibition of pressor response induced by Angiotensin II (AII) following oral administration to pithed rats; format: functional, organism-based
[3] = target: T2, Angiotensin II receptor (AT-1) type-1 (Rattus norvegicus, UniProt P29089+P25095); assay: In vitro displacement of [125I]angiotensin II from rat liver (Angiotensin 1 receptor) membrane preparation
T2 sequence (P29089 whole entry): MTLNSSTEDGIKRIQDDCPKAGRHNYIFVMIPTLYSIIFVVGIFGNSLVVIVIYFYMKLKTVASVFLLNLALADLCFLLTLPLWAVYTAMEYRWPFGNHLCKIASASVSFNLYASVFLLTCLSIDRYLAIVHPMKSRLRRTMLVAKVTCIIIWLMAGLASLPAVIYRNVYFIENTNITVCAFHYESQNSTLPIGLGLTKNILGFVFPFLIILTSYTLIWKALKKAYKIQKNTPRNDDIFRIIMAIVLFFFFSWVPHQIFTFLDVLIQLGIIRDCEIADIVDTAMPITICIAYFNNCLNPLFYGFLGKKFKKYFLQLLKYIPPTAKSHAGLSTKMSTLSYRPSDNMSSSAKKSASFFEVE
T2 sequence (P25095 whole entry): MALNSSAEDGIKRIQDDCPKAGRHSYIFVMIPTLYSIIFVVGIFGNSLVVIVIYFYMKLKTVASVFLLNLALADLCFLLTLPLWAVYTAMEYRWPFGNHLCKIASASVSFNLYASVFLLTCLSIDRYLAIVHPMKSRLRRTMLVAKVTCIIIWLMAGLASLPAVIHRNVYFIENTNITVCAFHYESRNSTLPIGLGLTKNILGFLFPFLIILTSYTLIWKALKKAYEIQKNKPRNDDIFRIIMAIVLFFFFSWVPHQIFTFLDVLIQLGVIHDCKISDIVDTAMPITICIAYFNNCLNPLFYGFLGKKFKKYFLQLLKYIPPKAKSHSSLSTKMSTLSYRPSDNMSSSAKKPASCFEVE

T1 sequence (P35351 whole entry, looked up, one chain of several): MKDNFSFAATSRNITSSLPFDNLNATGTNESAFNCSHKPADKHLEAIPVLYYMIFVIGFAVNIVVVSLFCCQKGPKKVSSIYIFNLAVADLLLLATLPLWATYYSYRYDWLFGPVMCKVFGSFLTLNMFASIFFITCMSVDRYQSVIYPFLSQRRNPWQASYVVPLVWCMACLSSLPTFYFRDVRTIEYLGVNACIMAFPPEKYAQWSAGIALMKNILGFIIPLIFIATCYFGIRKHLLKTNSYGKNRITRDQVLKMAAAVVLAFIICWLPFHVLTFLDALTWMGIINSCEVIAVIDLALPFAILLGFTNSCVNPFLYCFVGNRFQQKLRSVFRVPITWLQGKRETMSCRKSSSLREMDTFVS

With `CCCCc1nc(SC(F)F)c(C(=O)O)n1Cc1ccc(-c2ccccc2S(=O)(=O)NC(=O)Cc2ccccc2)cc1` the ID50 [1] was 0.36 mg/kg, the ID50 [2] was 2.2 mg/kg and the IC50 [3] was 0.15 nM.
`CCCc1nc(SC)c(C(=O)O)n1Cc1ccc(-c2ccccc2S(=O)(=O)NC(=O)NCc2ccccc2)cc1` showed an ID50 [1] of 0.22 mg/kg, an ID50 [2] of 1.4 mg/kg and an IC50 [3] of 0.2 nM.
In the case of `CCCc1nc(SC(F)F)c(C(=O)O)n1Cc1ccc(-c2ccccc2S(=O)(=O)NC(=O)CCCc2ccccc2)cc1`, the ID50 [1] is reported as 0.52 mg/kg and the IC50 [3] is reported as 0.7 nM.
`CCCCNC(=O)NS(=O)(=O)c1ccccc1-c1ccc(Cn2c(CCCC)nc(SC)c2C(=O)O)cc1` was tested, and the ID50 [1] was 0.09 mg/kg, the ID50 [2] was 0.2 mg/kg and the IC50 [3] was 0.2 nM.
Compound `CCCc1nc(SC(F)F)c(C(=O)O)n1Cc1ccc(-c2ccccc2S(=O)(=O)NC(=O)CC2CCCCC2)cc1` has an ID50 [1] of 0.22 mg/kg, an ID50 [2] of 1.1 mg/kg and an IC50 [3] of 0.07 nM.
For `CCCCc1nc(SC)c(C(=O)O)n1Cc1ccc(-c2ccccc2S(=O)(=O)NC(=O)NC)cc1`, the ID50 [1] was 0.27 mg/kg, the ID50 [2] was 4.9 mg/kg and the IC50 [3] was 1.9 nM.
Work on `CCCc1nc(SC(F)F)c(C(=O)O)n1Cc1ccc(-c2ccccc2S(=O)(=O)NC(=O)Cc2ccc(F)cc2)cc1` yielded an ID50 [1] of 0.43 mg/kg and an IC50 [3] of 0.1 nM.
`CCCCc1nc(SC)c(C(=O)O)n1Cc1ccc(-c2ccccc2S(=O)(=O)NC(=O)NCC)cc1` gave an ID50 [1] of 0.17 mg/kg, an ID50 [2] of 1.1 mg/kg and an IC50 [3] of 0.2 nM.
`CCCc1nc(SC(F)F)c(C(=O)O)n1Cc1ccc(-c2ccccc2S(=O)(=O)NC(=O)Cc2ccccc2Cl)cc1` gave an ID50 [1] of 0.8 mg/kg and an IC50 [3] of 0.3 nM.
Compound `CCCCc1nc(SC)c(C(=O)O)n1Cc1ccc(-c2ccccc2S(=O)(=O)NC(=O)NCCC)cc1` has an ID50 [1] of 0.11 mg/kg, an ID50 [2] of 0.7 mg/kg and an IC50 [3] of 0.5 nM.
For `CCCCc1nc(SC)c(C(=O)O)n1Cc1ccc(-c2ccccc2S(=O)(=O)NC(=O)N(c2ccccc2)c2ccccc2)cc1`, the ID50 [1] was 5.8 mg/kg and the IC50 [3] was 1.2 nM.
In the case of `CCCc1nc(SC)c(C(=O)O)n1Cc1ccc(-c2ccccc2S(=O)(=O)NC(=O)NCC2CCCCC2)cc1`, the ID50 [1] is reported as 0.3 mg/kg, the ID50 [2] is reported as 1.5 mg/kg and the IC50 [3] is reported as 0.1 nM.
With `CCCCc1nc(SC)c(C(=O)O)n1Cc1ccc(-c2ccccc2S(=O)(=O)NC(=O)NC(c2ccccc2)c2ccccc2)cc1` the IC50 [3] was 0.4 nM.
In the case of `CCc1nc(SC)c(C(=O)O)n1Cc1ccc(-c2ccccc2S(=O)(=O)NC(=O)NCc2ccccc2)cc1`, the ID50 [1] is reported as 1.37 mg/kg and the IC50 [3] is reported as 0.1 nM.
`CCCc1nc(SC(F)F)c(C(=O)O)n1Cc1ccc(-c2ccccc2S(=O)(=O)NC(=O)CCc2cccs2)cc1` showed an ID50 [1] of 0.33 mg/kg, an ID50 [2] of 3.1 mg/kg and an IC50 [3] of 0.03 nM.
Compound `CCCc1nc(SC(F)F)c(C(=O)O)n1Cc1ccc(-c2ccccc2S(=O)(=O)NC(=O)Cc2ccccc2)cc1` has an ID50 [1] of 0.26 mg/kg, an ID50 [2] of 2 mg/kg and an IC50 [3] of 0.2 nM.
`CCCc1nc(SC)c(C(=O)O)n1Cc1ccc(-c2ccccc2S(=O)(=O)NC(=O)NCc2cccs2)cc1` showed an ID50 [2] of 1 mg/kg and an IC50 [3] of 0.1 nM.
For `CCCc1nc(SC(F)F)c(C(=O)O)n1Cc1ccc(-c2ccccc2S(=O)(=O)NC(=O)Cc2ccc3c(c2)OCO3)cc1`, the ID50 [1] was 0.35 mg/kg, the ID50 [2] was 10 mg/kg and the IC50 [3] was 0.3 nM.
Work on `CCCc1nc(SC(F)F)c(C(=O)O)n1Cc1ccc(-c2ccccc2S(=O)(=O)NC(=O)Cc2cccs2)cc1` yielded an ID50 [1] of 0.13 mg/kg, an ID50 [2] of 3 mg/kg and an IC50 [3] of 0.07 nM.
For `CCc1nc(SC)c(C(=O)O)n1Cc1ccc(-c2ccccc2S(=O)(=O)NC(=O)NCC2CCCCC2)cc1`, the ID50 [1] was 1.84 mg/kg, the ID50 [2] was > 10 mg/kg and the IC50 [3] was 1.3 nM.
`CCCc1nc(SC)c(C(=O)O)n1Cc1ccc(-c2ccccc2S(=O)(=O)NC(=O)Nc2ccccc2)cc1` was tested, and the ID50 [1] was 0.52 mg/kg and the IC50 [3] was 2.3 nM.
With `CCCCc1nc(SC)c(C(=O)O)n1Cc1ccc(-c2ccccc2S(=O)(=O)NC(=O)NCc2ccccc2)cc1` the IC50 [3] was 0.1 nM.
In the case of `CCCCc1nc(SC)c(C(=O)O)n1Cc1ccc(-c2ccccc2S(=O)(=O)NC(=O)NCC2CCCCC2)cc1`, the ID50 [1] is reported as 0.35 mg/kg and the IC50 [3] is reported as 0.1 nM.
`CCCCc1nc(SC(F)F)c(C(=O)O)n1Cc1ccc(-c2ccccc2S(=O)(=O)NC(=O)CC2CCCCC2)cc1` was tested, and the ID50 [1] was 0.6 mg/kg, the ID50 [2] was 1.7 mg/kg and the IC50 [3] was 0.2 nM.
Work on `CCCc1nc(SC(F)F)c(C(=O)O)n1Cc1ccc(-c2ccccc2S(=O)(=O)NC(=O)Cc2ccc3ccccc3c2)cc1` yielded an IC50 [3] of 0.1 nM.
With `CCCc1nc(SC(F)F)c(C(=O)O)n1Cc1ccc(-c2ccccc2S(=O)(=O)NC(=O)C(C)c2ccccc2)cc1` (configuration not stated) the IC50 [3] was 0.3 nM.
`CCCc1nc(SC)c(C(=O)O)n1Cc1ccc(-c2ccccc2S(=O)(=O)NC(=O)NC2CCCCC2)cc1` showed an IC50 [3] of 0.5 nM.
`CCCc1nc(SC)c(C(=O)O)n1Cc1ccc(-c2ccccc2S(=O)(=O)NC(=O)NCC2CCCC2)cc1` showed an ID50 [2] of 1 mg/kg and an IC50 [3] of 0.1 nM.
With `CCCc1nc(SC)c(C(=O)O)n1Cc1ccc(-c2ccccc2S(=O)(=O)NC(=O)Nc2ccc(C)cc2)cc1` the ID50 [1] was 0.87 mg/kg and the IC50 [3] was 1 nM.
With `CCCCc1nc(SC(F)F)c(C(=O)O)n1Cc1ccc(-c2ccccc2S(=O)(=O)NC(=O)CCC)cc1` the ID50 [1] was 0.09 mg/kg, the ID50 [2] was 0.8 mg/kg and the IC50 [3] was 0.5 nM.
Compound `CCCc1nc(SC(F)F)c(C(=O)O)n1Cc1ccc(-c2ccccc2S(=O)(=O)NC(=O)CCc2ccccc2)cc1` has an ID50 [1] of 0.64 mg/kg and an IC50 [3] of 0.1 nM.

Source: ChEMBL document CHEMBL1128069, “Balanced AT1 and AT2 angiotensin II antagonists. I. New orally active 5-carboxyl imidazolyl biphenyl sulfonylureas” (Bioorg Med Chem Lett, 1995)
